Holding throughout (experiment): biochemical
What all share (parameters): KINOMEscan competition binding, DNA-tagged kinase against immobilised ligand, qPCR read-out
On the technique in general: Real-time PCR tracks product formation cycle by cycle.

Experiment [1] addresses AURKA (Homo sapiens, UniProt O14965). Conditions: read-out: Percent Control.
The target of experiment [2] is EPHA6 (Homo sapiens, UniProt Q9UF33). Conditions: read-out: Percent Control.
Experiment [3] has as its target HIPK1 (Homo sapiens, UniProt Q86Z02). The following applies: read-out: Percent Control.
The target of experiment [4] is T1, ICK (Homo sapiens, UniProt Q9UPZ9).
T1 construct: gene CILK1
Conditions: read-out: Percent Control.

Experiment [5] addresses LATS2 (Homo sapiens, UniProt Q9NRM7). The following applies: read-out: Percent Control.
The target in experiment [6] is MAP2K2 (Homo sapiens, UniProt P36507). The following applies: read-out: Percent Control.
In experiment [7] the target is MAP3K19 (Homo sapiens, UniProt Q56UN5). In a few lines:
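RT-qPCR read-out of DNA-tagged kinase captured on immobilised ligand; less captured kinase means the compound displaced the kinase-ligand interaction. Compound was tested as an 11-point, 3-fold dilution series made in DMSO at 100× and brought to 1× final.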

Experiment [8] addresses MAP3K6 (Homo sapiens, UniProt O95382). The following applies: read-out: Percent Control.
The target of experiment [9] is MAPK1 (Homo sapiens, UniProt P28482). Conditions: read-out: Percent Control.
The target in experiment [10] is PDPK1 (Homo sapiens, UniProt O15530). The following applies: read-out: Percent Control.
The target in experiment [11] is PIK3CA (Homo sapiens, UniProt P42336). The following applies: read-out: Percent Control.
The target in experiment [12] is PIK3CG (Homo sapiens, UniProt P48736). Conditions: read-out: Percent Control.
Experiment [13] addresses RIPK2 (Homo sapiens, UniProt O43353). Conditions: read-out: Percent Control.
Experiment [14] concerns the target T2, RPS6KA4(Kin.Dom.1-N-terminal) (Homo sapiens, UniProt O75676).
T2 construct: Kin.Dom.1 N-terminal
The following applies: read-out: Percent Control.

In experiment [15] the target is T3, RSK1(Kin.Dom.2-C-terminal) (Homo sapiens, UniProt Q15418).
T3 construct: gene RPS6KA1; Kin.Dom.2 C-terminal
Conditions: read-out: Percent Control.

Experiment [16] has as its target T4, RSK4(Kin.Dom.1-N-terminal) (Homo sapiens, UniProt Q9UK32).
T4 construct: gene RPS6KA6; Kin.Dom.1 N-terminal
Conditions: read-out: Percent Control.

In experiment [17] the target is STK38 (Homo sapiens, UniProt Q15208). Conditions: read-out: Percent Control.
The target in experiment [18] is TEC (Homo sapiens, UniProt P42680). Conditions: read-out: Percent Control.
Experiment [19] addresses TIE1 (Homo sapiens, UniProt P35590). Conditions: read-out: Percent Control.

SMILES strings stand for the structures.

Chain of MAP3K19 (Q56UN5 whole entry): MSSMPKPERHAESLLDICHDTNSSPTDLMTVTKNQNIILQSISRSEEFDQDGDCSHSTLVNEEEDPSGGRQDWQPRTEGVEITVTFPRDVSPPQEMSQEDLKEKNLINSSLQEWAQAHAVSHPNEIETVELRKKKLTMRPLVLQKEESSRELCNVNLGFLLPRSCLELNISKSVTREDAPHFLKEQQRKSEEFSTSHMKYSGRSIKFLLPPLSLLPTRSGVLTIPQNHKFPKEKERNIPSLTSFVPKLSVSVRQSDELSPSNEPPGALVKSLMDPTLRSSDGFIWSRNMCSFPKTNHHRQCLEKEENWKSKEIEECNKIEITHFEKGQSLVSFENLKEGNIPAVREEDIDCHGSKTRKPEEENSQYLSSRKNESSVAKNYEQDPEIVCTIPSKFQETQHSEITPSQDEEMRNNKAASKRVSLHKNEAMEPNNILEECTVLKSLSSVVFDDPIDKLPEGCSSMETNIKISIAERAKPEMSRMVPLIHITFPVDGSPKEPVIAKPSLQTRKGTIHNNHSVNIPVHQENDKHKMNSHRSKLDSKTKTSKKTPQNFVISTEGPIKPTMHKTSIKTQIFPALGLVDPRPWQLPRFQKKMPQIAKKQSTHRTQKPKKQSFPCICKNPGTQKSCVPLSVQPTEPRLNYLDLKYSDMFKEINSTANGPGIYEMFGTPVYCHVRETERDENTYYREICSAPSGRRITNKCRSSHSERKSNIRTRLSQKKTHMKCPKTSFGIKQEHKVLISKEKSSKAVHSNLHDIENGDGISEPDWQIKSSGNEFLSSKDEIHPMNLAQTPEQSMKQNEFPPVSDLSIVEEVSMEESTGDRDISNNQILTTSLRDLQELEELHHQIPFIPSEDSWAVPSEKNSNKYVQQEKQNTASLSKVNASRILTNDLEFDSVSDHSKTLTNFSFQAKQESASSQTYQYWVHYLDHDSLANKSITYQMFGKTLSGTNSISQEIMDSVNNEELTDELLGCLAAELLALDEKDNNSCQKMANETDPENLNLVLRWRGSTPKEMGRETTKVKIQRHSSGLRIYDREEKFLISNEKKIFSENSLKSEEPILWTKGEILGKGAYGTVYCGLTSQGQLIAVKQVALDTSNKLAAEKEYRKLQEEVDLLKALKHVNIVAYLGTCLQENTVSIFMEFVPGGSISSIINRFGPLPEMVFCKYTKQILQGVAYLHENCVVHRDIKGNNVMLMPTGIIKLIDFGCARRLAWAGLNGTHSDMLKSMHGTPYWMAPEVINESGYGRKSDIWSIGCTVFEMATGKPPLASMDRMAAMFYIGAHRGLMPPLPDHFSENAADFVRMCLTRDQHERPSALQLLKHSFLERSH
Chain of LATS2 (Q9NRM7 whole entry): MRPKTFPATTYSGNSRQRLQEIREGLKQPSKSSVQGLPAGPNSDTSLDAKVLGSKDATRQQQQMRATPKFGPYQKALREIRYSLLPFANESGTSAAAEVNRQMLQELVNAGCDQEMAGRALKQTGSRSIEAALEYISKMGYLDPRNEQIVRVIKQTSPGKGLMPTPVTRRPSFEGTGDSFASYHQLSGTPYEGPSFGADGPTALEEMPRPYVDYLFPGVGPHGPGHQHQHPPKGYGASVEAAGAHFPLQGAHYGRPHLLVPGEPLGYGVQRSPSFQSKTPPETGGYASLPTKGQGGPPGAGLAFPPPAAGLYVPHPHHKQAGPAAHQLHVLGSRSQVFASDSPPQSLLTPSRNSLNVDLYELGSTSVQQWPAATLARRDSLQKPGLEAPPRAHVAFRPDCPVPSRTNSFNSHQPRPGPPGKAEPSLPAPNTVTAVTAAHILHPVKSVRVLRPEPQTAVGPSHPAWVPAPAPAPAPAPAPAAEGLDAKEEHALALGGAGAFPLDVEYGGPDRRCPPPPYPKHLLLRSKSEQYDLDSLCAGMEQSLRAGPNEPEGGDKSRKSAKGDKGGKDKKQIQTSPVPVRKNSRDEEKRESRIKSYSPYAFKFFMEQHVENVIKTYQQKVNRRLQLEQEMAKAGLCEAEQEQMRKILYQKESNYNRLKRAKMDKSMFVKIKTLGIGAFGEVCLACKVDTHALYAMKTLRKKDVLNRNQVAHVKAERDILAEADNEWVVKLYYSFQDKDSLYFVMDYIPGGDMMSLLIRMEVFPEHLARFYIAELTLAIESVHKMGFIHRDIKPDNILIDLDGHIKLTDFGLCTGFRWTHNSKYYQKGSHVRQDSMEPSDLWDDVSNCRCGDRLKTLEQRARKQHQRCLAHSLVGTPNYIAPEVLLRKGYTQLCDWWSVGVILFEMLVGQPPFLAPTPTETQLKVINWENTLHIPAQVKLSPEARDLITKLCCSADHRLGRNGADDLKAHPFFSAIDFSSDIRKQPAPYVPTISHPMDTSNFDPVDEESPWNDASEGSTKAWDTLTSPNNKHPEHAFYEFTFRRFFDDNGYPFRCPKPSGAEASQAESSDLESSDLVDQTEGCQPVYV
Chain of MAP3K6 (O95382 whole entry): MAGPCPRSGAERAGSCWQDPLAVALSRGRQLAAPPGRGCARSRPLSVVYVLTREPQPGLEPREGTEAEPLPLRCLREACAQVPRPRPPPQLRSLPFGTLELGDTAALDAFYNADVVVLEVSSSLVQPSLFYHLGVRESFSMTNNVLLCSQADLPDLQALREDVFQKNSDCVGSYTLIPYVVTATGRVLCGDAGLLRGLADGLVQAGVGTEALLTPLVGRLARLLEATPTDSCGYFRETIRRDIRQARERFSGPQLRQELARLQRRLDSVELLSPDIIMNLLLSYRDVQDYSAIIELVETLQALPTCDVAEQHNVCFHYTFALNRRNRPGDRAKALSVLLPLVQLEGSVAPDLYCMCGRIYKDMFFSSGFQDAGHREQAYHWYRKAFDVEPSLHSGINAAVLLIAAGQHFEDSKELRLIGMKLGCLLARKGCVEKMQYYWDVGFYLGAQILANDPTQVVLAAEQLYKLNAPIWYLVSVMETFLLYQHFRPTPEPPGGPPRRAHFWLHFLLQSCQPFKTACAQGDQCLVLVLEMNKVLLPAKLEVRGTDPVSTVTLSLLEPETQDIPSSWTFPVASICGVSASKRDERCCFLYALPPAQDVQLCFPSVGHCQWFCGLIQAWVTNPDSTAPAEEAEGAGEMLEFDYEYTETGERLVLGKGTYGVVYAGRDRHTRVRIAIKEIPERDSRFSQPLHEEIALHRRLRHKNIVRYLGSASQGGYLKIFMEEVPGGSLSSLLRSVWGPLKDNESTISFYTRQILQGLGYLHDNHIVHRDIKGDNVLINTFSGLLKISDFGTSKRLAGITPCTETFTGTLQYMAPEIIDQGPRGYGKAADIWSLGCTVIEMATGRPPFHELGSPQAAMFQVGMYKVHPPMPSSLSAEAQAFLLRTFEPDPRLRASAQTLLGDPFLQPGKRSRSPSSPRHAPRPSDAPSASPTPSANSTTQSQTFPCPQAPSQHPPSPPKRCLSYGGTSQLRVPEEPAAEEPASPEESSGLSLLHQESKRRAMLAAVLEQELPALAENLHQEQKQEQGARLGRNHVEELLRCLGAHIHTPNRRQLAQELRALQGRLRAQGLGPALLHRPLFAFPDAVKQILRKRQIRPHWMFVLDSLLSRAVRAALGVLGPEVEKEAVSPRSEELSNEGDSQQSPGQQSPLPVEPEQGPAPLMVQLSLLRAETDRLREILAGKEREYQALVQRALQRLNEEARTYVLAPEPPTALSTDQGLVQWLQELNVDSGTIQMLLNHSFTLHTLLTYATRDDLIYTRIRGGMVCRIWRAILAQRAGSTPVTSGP
Chain of PIK3CG (P48736 whole entry): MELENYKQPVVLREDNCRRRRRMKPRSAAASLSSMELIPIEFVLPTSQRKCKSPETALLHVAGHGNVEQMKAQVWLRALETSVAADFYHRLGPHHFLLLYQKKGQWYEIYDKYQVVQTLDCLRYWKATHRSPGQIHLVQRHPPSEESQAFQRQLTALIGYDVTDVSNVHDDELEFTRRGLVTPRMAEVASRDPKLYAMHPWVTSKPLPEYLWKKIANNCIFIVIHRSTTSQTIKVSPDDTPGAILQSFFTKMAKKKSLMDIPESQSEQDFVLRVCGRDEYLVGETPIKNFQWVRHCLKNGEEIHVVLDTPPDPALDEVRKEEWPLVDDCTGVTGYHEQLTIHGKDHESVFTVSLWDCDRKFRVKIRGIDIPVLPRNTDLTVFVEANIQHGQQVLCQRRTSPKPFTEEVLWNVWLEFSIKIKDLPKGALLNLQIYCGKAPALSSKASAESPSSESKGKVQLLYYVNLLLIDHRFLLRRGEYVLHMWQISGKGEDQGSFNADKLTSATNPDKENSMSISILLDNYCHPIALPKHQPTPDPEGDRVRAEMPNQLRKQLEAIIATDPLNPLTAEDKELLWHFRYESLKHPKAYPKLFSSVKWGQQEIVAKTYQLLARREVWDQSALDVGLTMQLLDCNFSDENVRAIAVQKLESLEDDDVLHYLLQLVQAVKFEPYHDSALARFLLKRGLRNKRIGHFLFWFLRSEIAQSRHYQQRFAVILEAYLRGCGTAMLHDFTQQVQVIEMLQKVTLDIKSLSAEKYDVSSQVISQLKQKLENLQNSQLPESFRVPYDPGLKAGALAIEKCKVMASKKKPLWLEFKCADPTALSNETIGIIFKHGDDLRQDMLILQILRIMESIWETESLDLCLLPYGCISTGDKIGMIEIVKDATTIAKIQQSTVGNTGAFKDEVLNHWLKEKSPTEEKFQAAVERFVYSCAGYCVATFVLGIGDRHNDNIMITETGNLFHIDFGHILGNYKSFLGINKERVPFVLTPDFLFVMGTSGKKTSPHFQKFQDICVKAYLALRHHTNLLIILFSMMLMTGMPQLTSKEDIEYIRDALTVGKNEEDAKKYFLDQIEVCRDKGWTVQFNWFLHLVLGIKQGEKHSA

Take `Oc1ccc(C2=Cc3ccc(O)cc3OC2)cc1` [compound 1, idronoxil]: the remaining binding at 10 µM in experiment [1] came out at 92%; in experiment [2], 99%; in experiment [3], 65%; in experiment [4], 100%; in experiment [5] it was 55%; in experiment [6], 79%. Moreover, the remaining binding at 10 µM was 12% in experiment [7] (read-out: Percent Control); 88% in experiment [8]; 100% in experiment [9]; 79% in experiment [10]; 89% in experiment [11]; 79% in experiment [12]. Moreover, the remaining binding at 10 µM amounted to 81% in [13]; 83% in [14]; 69% in experiment [15]; 94% in experiment [16]; 68% in [17]; 93% in experiment [18]. In [19], the remaining binding at 10 µM is 84%. Moreover, the Kd in experiment [7] came to 2200 nM.

By Kd is commonly meant a measure of binding affinity in units of concentration.
